biological target: T1, AXL kinase (Homo sapiens, UniProt P30530); experiment: Inhibitory activity of compound against AXL kinase (HTRF KinEASE); assay type: biochemical; settings: AXL enzyme (Carna, 08-107), ATP 15 μM; "<" means below detection limit of the test
T1 construct: purchased Carna 08-107
T1 sequence (P30530 473-894 limits assumed): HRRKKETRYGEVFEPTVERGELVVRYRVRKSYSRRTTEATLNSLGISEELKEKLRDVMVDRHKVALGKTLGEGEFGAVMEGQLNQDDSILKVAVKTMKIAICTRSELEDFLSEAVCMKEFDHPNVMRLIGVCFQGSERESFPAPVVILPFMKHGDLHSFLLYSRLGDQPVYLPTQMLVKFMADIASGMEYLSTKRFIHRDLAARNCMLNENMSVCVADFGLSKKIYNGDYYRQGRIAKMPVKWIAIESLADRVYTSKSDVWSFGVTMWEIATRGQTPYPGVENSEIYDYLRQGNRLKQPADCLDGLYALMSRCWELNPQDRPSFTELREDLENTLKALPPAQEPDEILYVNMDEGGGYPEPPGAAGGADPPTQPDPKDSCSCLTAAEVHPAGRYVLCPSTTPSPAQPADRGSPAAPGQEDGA
Experimental: a) AXL enzyme (Carna, 08-107) configuration and addition: a 1×enzyme buffer (200 μL of Enzymatic buffer kinase 5×, 10 μL of 500 mM MgCl2, 10 μL of 100 mM DTT and 6.26 μL of 2500 nM SEB are added with […] of H2O, and prepared into 1 ml of 1× enzyme buffer) is used. AXL enzyme is diluted from 33.33 ng/uL to 0.027 ng/μL (1.67×, final conc.=0.016 ng/uL), a BioTek (MultiFlo FX) automatic liquid dispenser is used, and 6 μL of enzyme solution having a 1.67-fold final concentration is added respectively to compound wells and positive control wells; and 6 μL of 1×Enzymatic buffer is added to negative control wells.
b) Compound preparation and addition: the compounds and positive drugs prepared in the examples are diluted from 10 mM to 100 μM by DMSO, and titrated with a compound titrator (Tecan, D300e). The titrated solution is automatically sprayed by the titrator to each well to reach a required concentration, wherein the first concentration is 1 μM, and after ½ log dilution, a total of 8 concentrations are obtained. The resulting mixture is centrifuged at 2500 rpm for 30 s and incubated at room temperature for 15 min.
c) Preparation and addition of ATP and substrate: ATP (Sigma, A7699) is diluted with 1× enzyme buffer from 10 mM to 75 μM (5×), and the final concentration is 15 μM; the substrate TK Substrate 3-biotin (Cisbio, 61TK0BLC) is diluted with 1× enzyme buffer from 500 μM to 5 μM (5×), andthe final concentration is […]; ATP and the substrate are mixed in equal volume to obtain a mixed solution; the mixed solution is added to each well at 4 μL by using a BioTek automatic dispenser; centrifuged at 2500 rpm for 30 s, and reacted at 25° C. for 45 min.
d) Pirparation and addition of detection reagent: Streptavidin-XL665 (Cisbio, 610SAXLG) is diluted with HTRF KinEASE detection buffer (cisbio) from 16.67 μM to 250 nM (4×), and the final concentration is 62.5 nM; TK Antibody-Cryptate (Cisbio) is diluted with HTRF KinEASE detection buffer (cisbio) from 100× to 5×, and the final concentration is 1×; XL665 and Antibody are mixed in equal volume; the mixed solution is added to each well at 10 μL by using the BioTek automatic dispenser, centrifuged at 2500 rpm for 30 s, and reacted at 25° C. for 1 h. After the reaction is completed, the resulting product is detected by a multi-function plate reader HTR1p
GraphPad Prism 5 software log (inhibitor) vs. response-Variable slope is used to fit a dose-response curve to obtain the IC50 value of the compound to the inhibition of AXL kinase.
The calculation formula of the inhibition rate is as follows: […]

Compound	IC50
CN(C)C(=O)c1occc1Nc1nc(Nc2ccc3c(c2)CC[C@@H](N2CCCC2)CC3)ncc1Cl [Example 7, (S)-3-((5-chloro-2-((7-(pyrrolidin-1-yl)-6,7,8,9-tetrahydro-5H-benzo[7]annulen-2-yl)amino)pyrimidin-4-yl)amino)-N,N-dimethylfuran-2-carboxamide]	7.74 nM
[2H]C([2H])([2H])P(=O)(c1cc(F)ccc1Nc1nc(Nc2ccc3c(c2)CC[C@@H](N2CCCC2)CC3)ncc1Cl)C([2H])([2H])[2H] [Example 57, (S)-(2-((5-chloro-2-((7-(pyrrolidin-1-yl)-6,7,8,9-tetrahydro-5H-benzo[7]annulen-2-yl)amino)pyrimidin-4-yl)amino)-5-fluorophenyl)bis(methyl-d3) phosphine oxide]	6.27 nM
CP(C)(=O)c1cc(N2CC3(COC3)C2)ccc1Nc1nc(Nc2ccc3c(c2)CC[C@@H](N2CCCC2)CC3)ncc1Cl [Example 119, (S)-(2-((5-chloro-2-((7-(pyrrolidin-1-yl)-6,7,8,9-tetrahydro-5H-benzo[7]annulen-2-yl)amino)pyrimidin-4-yl)amino)-5-(2-oxa-6-azaspiro[3.3]heptan-6-yl)phenyl)dimethyl phosphine oxide]	9.24 nM
COc1cc(Nc2nc(Nc3ccc4c(c3)CC[C@@H](N3CCCC3)CC4)ncc2Cl)c(P(C)(C)=O)cc1F [Example 131, (S)-(2-((5-chloro-2-((7-(pyrrolidin-1-yl)-6,7,8,9-tetrahydro-5H-benzo[7]annulen-2-yl)amino)pyrimidin-4-yl)amino)-5-fluoro-4-methoxylphenyl)dimethyl phosphine oxide]	207 nM
CP(C)(=O)c1cc(C#N)ccc1Nc1nc(Nc2ccc3c(c2)CC[C@@H](N2CCCC2)CC3)ncc1Cl [Example 54, (S)-4-((5-chloro-2-((7-(pyrrolidin-1-yl)-6,7,8,9-tetrahydro-5H-benzo[7]annulen-2-yl)amino)pyrimidin-4-yl)amino)-3-(dimethylphosphoryl)benzonitrile]	3.1 nM
CNC(=O)c1ncsc1Nc1nc(Nc2ccc3c(c2)CC[C@@H](N2CCCC2)CC3)ncc1Cl [Example 26, (S)-5-((5-chloro-2-((7-(pyrrolidin-1-yl)-6,7,8,9-tetrahydro-5H-benzo[7]annulen-2-yl)amino)pyrimidin-4-yl)amino)-N-methylthiazole-4-carboxamide]	7.21 nM
CNC(=O)c1ncccc1Nc1nc(Nc2ccc3c(c2)CC[C@@H](N2CCCC2)CC3)ncc1Cl [Example 33, (S)-3-((5-chloro-2-((7-(pyrrolidin-1-yl)-6,7,8,9-tetrahydro-5H-benzo[7]annulen-2-yl)amino)pyrimidin-4-yl)amino)-N-methylpicolinamide]	5.15 nM
N#CCc1cccc(Nc2nc(Nc3ccc4c(c3)CC[C@@H](N3CCCC3)CC4)ncc2Cl)c1 [Example 11, (S)-2-(3-((5-chloro-2-((7-(pyrrolidin-1-yl)-6,7,8,9-tetrahydro-5H-benzo[7]annulen-2-yl)amino)pyrimidin-4-yl)amino)phenyl)acetonitrile]	8.18 nM
COc1ccc(Nc2nc(Nc3ccc4c(c3)CC[C@@H](N3CCCC3)CC4)ncc2Cl)c(P(C)(C)=O)c1 [Example 55, (S)-(2-((5-chloro-2-((7-(pyrrolidin-1-yl)-6,7,8,9-tetrahydro-5H-benzo[7]annulen-2-yl)amino)pyrimidin-4-yl)amino)-5-methoxyphenyl)dimethyl phosphine oxide]	3.14 nM
CP(C)(=O)c1cc(C2(C#N)CC2)ccc1Nc1nc(Nc2ccc3c(c2)CC[C@@H](N2CCCC2)CC3)ncc1Cl [Example 140, (S)-1-(4-((5-chloro-2-((7-(pyrrolidin-1-yl)-6,7,8,9-tetrahydro-5H-benzo[7]annulen-2-yl)amino)pyrimidin-4-yl)amino)-3-(dimethylphosphoryl)phenyl)cyclopropane-1-carbonitrile]	2.91 nM
COc1cc(P(C)(C)=O)c(Nc2nc(Nc3ccc4c(c3)CC[C@@H](N3CCCC3)CC4)ncc2Cl)cc1C#N [Example 136, (S)-(2-((5-chloro-2-((7-(pyrrolidin-1-yl)-6,7,8,9-tetrahydro-5H-benzo[7]annulen-2-yl)amino)pyrimidin-4-yl)amino)-4-cyano-5-methoxyphenyl)dimethyl phosphine oxide]	13.1 nM

Now those with a lower IC50, led by results:

IC50	Compound
< 0.11 nM	O=S(=O)(c1ccccc1Nc1nc(Nc2ccc3c(c2)CC[C@@H](N2CCCC2)CC3)ncc1Cl)N1CCCC1 [Example 4, (S)-5-chloro-N^2-(7-(pyrrolidin-1-yl)-6,7,8,9-tetrahydro-5H-benzo[7]annulen-2-yl)-N^4-(2-(pyrrolidin-1-ylsulfo)phenyl)pyrimidine-2,4-diamine]
1.81 nM	[2H]c1ccc(Nc2nc(Nc3ccc4c(c3)CC[C@@H](N3CCCC3)CC4)ncc2Cl)c(P(C)(C)=O)c1 [Example 111, (S)-(2-((5-chloro-2-((7-(pyrrolidin-1-yl)-6,7,8,9-tetrahydro-5H-benzo[7]annulen-2-yl)amino)pyrimidin-4-yl)amino)phenyl-5-d)dimethyl phosphine oxide]
2.53 nM	COC(C)(C)c1ccc(Nc2nc(Nc3ccc4c(c3)CC[C@@H](N3CCCC3)CC4)ncc2Cl)c(P(C)(C)=O)c1 [Example 139, (S)-(2-((5-chloro-2-((7-(pyrrolidin-1-yl)-6,7,8,9-tetrahydro-5H-benzo[7]annulen-2-yl)amino)pyrimidin-4-yl)amino)-5-(2-methoxypropan-2-yl)phenyl)dimethyl phosphine oxide]
1.28 nM	Cc1cccc(Nc2nc(Nc3ccc4c(c3)CC[C@@H](N3CCCC3)CC4)ncc2Cl)c1P(C)(C)=O [Example 113, (S)-(2-((5-chloro-2-((7-(pyrrolidin-1-yl)-6,7,8,9-tetrahydro-5H-benzo[7]annulen-2-yl)amino)pyrimidin-4-yl)amino)-6-methylphenyl) dimethyl phosphine oxide]
1.7 nM	CP(C)(=O)c1cc(Br)ccc1Nc1nc(Nc2ccc3c(c2)CC[C@@H](N2CCCC2)CC3)ncc1Cl [Example 110, (S)-(5-bromo 2-((5-chloro-2-((7-(pyrrolidin-1-yl)-6,7,8,9-tetrahydro-5H-benzo[7]annulen-2-yl)amino)pyrimidin-4-yl)amino)phenyl)dimethyl phosphine oxide]
2.36 nM	CP(C)(=O)c1c(Nc2nc(Nc3ccc4c(c3)CC[C@@H](N3CCCC3)CC4)ncc2Cl)ccc(F)c1Cl [Example 132, (S)-(2-chloro-6-((5-chloro-2-((7-(pyrrolidin-1-yl)-6,7,8,9-tetrahydro-5H-benzo [7]annulen-2-yl)amino)pyrimidin-4-yl)amino)-3-fluorophenyl)dimethyl phosphine oxide]
1.05 nM	CNC(=O)c1cc(P(C)(C)=O)ccc1Nc1nc(Nc2ccc3c(c2)CC[C@@H](N2CCCC2)CC3)ncc1Cl [Example 79, (S)-2-((5-chloro-2-((7-(pyrrolidin-1-yl)-6,7,8,9-tetrahydro-5H-benzo[7]annulen-2-yl)amino)pyrimidin-4-yl)amino)-5-(dimethylphosphoryl)-N-methylbenzamide]
2.03 nM	CC(C)Oc1ccc(Nc2nc(Nc3ccc4c(c3)CC[C@@H](N3CCCC3)CC4)ncc2Cl)c(P(C)(C)=O)c1 [Example 114]
2.16 nM	CS(=N)(=O)c1ccccc1Nc1nc(Nc2ccc3c(c2)CC[C@@H](N2CCCC2)CC3)ncc1Cl (stereo partly drawn) [Example 50, (2-((5-chloro-2-(((S)-7-(pyrrolidin-1-yl)-6,7,8,9-tetrahydro-5H-benzo[7]annulen-2-yl)amino)pyrimidin-4-yl)amino)phenyl)(imino)(methyl)-λ^6-sulfanone]

— US20230227484A1, “PYRIMIDINE COMPOUND AS AXL INHIBITOR” (NANJING CHIA TAI TIANQING PHARMACEUTICAL CO., LTD., priority 2020, published 2023)
